Data reported in ChEMBL document CHEMBL1201862, “PubChem BioAssay data set” (2004).
One block for each compound: values may come before it. Active and inactive are the calls of the source.

Key:
[1] = molecular target: T1, Short transient receptor potential channel 4 (Mus musculus, UniProt Q9QUQ5); experiment: SAR Analysis for the identification of selective inhibits of the transient receptor potential cation channel C4 (TRPC4): Automated Electrophysiology_2. [Related pubchem assays (depositor defined):AID2256]; assay type: functional
T1 sequence (Q9QUQ5 whole entry): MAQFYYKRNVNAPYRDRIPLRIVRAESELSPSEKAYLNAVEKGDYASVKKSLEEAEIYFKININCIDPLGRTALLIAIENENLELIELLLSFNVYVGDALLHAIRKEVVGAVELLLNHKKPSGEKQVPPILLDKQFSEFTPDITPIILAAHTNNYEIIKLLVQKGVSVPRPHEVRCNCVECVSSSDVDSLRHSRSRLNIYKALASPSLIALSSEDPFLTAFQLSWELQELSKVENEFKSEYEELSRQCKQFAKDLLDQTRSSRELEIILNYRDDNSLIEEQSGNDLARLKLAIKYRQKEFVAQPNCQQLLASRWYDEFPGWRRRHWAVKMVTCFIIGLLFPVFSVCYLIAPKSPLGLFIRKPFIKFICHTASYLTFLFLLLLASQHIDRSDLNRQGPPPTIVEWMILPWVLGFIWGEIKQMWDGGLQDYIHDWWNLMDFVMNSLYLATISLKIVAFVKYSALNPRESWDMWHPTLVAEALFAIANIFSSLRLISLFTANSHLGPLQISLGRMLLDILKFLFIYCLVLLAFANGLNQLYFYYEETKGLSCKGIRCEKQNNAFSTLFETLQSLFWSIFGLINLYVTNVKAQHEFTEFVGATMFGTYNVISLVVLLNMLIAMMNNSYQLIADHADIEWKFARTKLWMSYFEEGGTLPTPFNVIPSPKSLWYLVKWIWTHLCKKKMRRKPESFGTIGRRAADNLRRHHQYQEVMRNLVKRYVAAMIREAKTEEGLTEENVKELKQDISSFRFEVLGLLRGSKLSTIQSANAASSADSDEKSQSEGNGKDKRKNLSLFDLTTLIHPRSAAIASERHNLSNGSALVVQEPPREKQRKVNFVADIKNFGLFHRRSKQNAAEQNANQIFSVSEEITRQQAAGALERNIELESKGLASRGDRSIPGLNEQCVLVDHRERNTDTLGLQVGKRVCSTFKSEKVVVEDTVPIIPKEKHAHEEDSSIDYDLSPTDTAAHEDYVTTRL

[2] = molecular target: T1, Short transient receptor potential channel 4; experiment: potency of mouse TRPC4 calcium flux blockers – cell-based, HEK293 TRPC4/mu-opioid, DAMGO stimulus, Fluo-4, dose response (AID 492994); assay type: functional
[3] = molecular target: Potassium voltage-gated channel subfamily KQT member 2 (Rattus norvegicus, UniProt O88943); experiment: rat KCNQ2 current potentiators – automated patch clamp, KCNQ2-CHO cells, SAR follow-up (AID 493113); assay type: functional
Chain of Potassium voltage-gated channel subfamily KQT member 2 (O88943 whole entry): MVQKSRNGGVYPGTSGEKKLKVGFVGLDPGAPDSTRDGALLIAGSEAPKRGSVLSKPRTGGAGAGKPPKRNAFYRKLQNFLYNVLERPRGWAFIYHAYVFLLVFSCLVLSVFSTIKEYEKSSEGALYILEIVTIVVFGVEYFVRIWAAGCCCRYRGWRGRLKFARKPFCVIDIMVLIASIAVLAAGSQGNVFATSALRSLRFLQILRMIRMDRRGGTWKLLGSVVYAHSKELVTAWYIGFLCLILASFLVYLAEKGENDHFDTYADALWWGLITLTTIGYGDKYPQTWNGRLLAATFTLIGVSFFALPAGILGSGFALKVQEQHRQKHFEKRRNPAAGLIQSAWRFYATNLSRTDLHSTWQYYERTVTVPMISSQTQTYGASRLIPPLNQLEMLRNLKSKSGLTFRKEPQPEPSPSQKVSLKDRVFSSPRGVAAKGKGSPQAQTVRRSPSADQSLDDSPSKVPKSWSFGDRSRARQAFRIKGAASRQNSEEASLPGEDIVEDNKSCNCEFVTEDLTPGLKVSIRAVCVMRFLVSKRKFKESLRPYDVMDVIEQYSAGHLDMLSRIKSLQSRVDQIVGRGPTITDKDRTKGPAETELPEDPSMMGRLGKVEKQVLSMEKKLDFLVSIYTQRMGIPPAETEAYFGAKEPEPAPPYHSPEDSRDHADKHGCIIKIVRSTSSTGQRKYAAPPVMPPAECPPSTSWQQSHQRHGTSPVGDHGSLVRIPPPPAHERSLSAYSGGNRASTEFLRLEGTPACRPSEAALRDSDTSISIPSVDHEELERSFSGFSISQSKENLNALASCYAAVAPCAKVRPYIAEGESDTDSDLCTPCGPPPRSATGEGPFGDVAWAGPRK

BJ [4] = experiment: BJ-TERT fibroblast viability loss – cell-based, RAS-independent, luminescence, dose response (AID 1933); assay type: functional, Homo sapiens; details: Homo sapiens, BJ
BJ [5] = experiment: cells; assay type: functional, cell-based, Homo sapiens; details: Homo sapiens, BJ
BJ [6] = experiment: BJ-TERT-LT-ST fibroblast viability loss – cell-based, RAS-independent, luminescence, dose response (AID 1935); assay type: functional, Homo sapiens; details: Homo sapiens, BJ;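 note: BJ fibroblasts immortalized with TERT plus LT and ST oncogenes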
[7] = DRD fibroblast viability loss – cell-based, non-viral oncogenic, luminescence, dose response (AID 1934); assay type: functional; details: Homo sapiens
[8] = molecular target: T1, Short transient receptor potential channel 4; experiment: block of DAMGO-driven TRPC4 calcium entry – cell-based, HEK293 TRPC4/mu-opioid, Fluo-4 calcium, dose response (AID 434942); assay type: functional;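 note: potency of inhibitors blocking the TRPC4 calcium response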
[9] = HEK-293T viability loss after treatment – luminescence, T-cell screen hits, cytotoxicity control for TCR NF-kB inhibitor project, dose response (AID 489026); assay type: functional, cell-based;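 note: cells exposed to compound about 14 hours before the viability readout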
BJ [10] = experiment: growth inhibition of engineered Ras-driven BJ cells – cell-based, alamar blue fluorescence, cherrypicked samples, dose response (AID 2631); assay type: functional; details: Homo sapiens;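 note: confirmatory dose-response assay in RAS-dependent BJ fibroblasts engineered with TERT, LT and ST, with cytotoxicity read by fluorescence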
[11] = viability loss in HeLa cells – cytotoxicity control for MgcRacGAP inhibitor project, dose response (AID 624300); assay type: functional
[12] = molecular target: T2, Rac GTPase-activating protein 1 (Homo sapiens, UniProt Q9H0H5); experiment: blockers of MgcRacGAP-driven Rac1 GTP hydrolysis – biochemical, ADP Hunter fluorescence, primary and confirmatory, confirmation (AID 624330); assay type: functional
T2 sequence (Q9H0H5 whole entry): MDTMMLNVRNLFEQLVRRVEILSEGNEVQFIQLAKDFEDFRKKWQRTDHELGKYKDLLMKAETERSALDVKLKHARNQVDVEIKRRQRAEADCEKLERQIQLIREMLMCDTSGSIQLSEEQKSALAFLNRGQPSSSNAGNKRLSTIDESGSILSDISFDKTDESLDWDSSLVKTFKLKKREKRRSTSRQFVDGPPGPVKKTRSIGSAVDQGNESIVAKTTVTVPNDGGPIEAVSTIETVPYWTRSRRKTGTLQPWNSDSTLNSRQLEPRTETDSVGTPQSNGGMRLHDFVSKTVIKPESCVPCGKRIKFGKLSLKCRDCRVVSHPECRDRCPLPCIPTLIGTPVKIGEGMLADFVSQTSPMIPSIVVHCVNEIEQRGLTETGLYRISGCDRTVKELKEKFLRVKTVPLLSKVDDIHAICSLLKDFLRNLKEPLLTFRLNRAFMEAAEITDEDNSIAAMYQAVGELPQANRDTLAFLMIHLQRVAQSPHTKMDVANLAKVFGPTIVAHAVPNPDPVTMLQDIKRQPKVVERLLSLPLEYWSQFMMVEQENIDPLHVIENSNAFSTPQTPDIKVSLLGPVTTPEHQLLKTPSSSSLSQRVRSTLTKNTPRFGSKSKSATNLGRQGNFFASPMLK

[13] = molecular target: T3, DNA repair protein RAD52 homolog (Homo sapiens, UniProt P43351); assay type: functional, biochemical
T3 sequence (P43351 whole entry): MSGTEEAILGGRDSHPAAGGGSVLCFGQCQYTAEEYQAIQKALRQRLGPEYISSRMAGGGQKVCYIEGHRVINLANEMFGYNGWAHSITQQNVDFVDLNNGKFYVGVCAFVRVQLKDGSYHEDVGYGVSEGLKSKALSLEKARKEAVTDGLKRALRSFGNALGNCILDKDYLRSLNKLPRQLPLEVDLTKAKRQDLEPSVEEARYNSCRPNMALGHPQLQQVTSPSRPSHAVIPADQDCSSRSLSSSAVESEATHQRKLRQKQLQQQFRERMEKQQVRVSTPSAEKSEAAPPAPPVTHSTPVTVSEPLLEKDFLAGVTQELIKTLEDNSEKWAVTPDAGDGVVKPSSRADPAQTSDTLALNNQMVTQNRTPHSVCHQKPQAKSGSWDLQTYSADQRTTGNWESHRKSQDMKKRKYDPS

Paired box protein Pax-8 = Paired box protein Pax-8 (Homo sapiens, UniProt Q06710); experiment: PAX8 transcriptional activity inhibition in RMG-I – RMG-I cells, luciferase, cherry-pick, dose response (AID 687027); assay type: functional, cell-based;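 note: luciferase reporter driven by Pax8 target thyroperoxidase promoter measured by SteadyGlo luminescence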
Chain of Paired box protein Pax-8 (Q06710 whole entry): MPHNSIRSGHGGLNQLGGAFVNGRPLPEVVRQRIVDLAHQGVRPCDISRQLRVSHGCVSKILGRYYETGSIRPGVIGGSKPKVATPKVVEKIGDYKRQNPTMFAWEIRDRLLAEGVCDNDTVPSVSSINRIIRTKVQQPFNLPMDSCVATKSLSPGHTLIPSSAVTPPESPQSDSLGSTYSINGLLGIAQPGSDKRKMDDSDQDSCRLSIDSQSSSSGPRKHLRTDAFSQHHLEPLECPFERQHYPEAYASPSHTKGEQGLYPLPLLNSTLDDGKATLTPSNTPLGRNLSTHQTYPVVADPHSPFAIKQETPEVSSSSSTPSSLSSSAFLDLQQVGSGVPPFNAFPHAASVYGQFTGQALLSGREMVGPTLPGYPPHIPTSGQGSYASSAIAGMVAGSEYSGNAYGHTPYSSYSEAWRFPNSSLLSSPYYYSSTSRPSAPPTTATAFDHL

[14] = general cell-killing toxicity readout – plate reader, dry powder samples, cytotoxicity control for PAX8 inhibitor project, dose response (AID 743021); assay type: functional, cell-based
Large T antigen = Large T antigen (Simian virus 40, UniProt P03070); assay type: functional, Betapolyomavirus macacae;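 note: Confirmatory-stage PubChem screen for compounds that inhibit SV40 T antigen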
Chain of Large T antigen (P03070 whole entry): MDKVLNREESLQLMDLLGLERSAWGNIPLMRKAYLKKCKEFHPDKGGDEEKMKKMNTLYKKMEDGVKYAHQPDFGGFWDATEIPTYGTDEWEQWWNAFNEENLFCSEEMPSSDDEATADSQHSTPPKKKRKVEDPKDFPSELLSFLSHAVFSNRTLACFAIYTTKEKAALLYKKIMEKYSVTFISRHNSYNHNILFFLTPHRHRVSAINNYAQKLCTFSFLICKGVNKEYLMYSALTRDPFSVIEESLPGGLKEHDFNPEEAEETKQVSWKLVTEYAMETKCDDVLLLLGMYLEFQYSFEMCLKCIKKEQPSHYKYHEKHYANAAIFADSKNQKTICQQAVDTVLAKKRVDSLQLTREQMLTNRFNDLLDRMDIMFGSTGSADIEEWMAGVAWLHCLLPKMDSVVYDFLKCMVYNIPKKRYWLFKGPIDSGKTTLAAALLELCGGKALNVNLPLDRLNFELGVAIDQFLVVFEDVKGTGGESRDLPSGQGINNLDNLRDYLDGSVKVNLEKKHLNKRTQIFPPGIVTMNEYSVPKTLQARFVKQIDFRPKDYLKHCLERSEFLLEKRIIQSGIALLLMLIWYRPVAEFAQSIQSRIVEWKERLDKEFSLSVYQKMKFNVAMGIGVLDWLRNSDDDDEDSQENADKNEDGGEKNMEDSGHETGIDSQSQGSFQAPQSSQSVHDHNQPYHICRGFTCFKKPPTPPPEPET

[15] = molecular target: Intestinal-type alkaline phosphatase (Mus musculus, UniProt P24822); experiment: PubChem AID 488785; assay type: functional
Chain of Intestinal-type alkaline phosphatase (Mus musculus, UniProt P24822) (P24822 whole entry): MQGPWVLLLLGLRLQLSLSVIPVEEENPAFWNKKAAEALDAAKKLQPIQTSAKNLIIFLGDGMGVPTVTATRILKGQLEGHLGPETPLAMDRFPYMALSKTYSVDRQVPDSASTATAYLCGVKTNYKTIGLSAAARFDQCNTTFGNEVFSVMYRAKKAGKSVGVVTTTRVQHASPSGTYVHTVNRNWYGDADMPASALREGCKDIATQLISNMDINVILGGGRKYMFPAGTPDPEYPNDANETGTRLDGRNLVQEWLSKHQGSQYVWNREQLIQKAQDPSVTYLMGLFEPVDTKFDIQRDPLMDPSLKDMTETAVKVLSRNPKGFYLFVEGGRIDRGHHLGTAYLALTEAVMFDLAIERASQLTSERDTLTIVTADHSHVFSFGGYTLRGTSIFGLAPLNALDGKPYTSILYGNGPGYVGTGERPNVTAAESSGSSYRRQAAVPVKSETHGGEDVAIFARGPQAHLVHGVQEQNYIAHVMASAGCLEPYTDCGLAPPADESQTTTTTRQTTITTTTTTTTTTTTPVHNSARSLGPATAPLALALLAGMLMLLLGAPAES

[16] = molecular target: Alkaline phosphatase, tissue-nonspecific isozyme (Homo sapiens, UniProt P05186); experiment: TNAP enzyme inhibition by screening hits, dose response, selectivity assay for mouse IAP inhibitor project, biochemical, human TNAP, uHTS hits (AID 488906); assay type: functional
Chain of Alkaline phosphatase, tissue-nonspecific isozyme (P05186 whole entry): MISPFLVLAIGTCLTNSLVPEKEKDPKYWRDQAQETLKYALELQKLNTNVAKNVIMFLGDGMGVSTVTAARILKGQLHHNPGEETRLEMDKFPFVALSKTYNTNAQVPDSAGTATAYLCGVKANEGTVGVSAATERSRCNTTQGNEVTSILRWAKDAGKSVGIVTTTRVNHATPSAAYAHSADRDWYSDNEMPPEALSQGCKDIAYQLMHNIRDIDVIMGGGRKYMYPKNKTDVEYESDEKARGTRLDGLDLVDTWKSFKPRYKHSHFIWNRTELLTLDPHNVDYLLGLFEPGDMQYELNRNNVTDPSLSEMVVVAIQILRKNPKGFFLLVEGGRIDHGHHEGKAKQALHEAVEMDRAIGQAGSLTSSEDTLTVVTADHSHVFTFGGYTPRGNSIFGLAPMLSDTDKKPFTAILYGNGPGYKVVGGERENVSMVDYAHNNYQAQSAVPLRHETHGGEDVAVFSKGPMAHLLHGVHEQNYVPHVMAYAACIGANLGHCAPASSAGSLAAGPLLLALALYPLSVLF

[17] = molecular target: Intestinal-type alkaline phosphatase (Homo sapiens, UniProt P09923); experiment: inhibition of human intestinal alkaline phosphatase – biochemical, dose response (AID 488876); assay type: functional
Chain of Intestinal-type alkaline phosphatase (Homo sapiens, UniProt P09923) (P09923 whole entry): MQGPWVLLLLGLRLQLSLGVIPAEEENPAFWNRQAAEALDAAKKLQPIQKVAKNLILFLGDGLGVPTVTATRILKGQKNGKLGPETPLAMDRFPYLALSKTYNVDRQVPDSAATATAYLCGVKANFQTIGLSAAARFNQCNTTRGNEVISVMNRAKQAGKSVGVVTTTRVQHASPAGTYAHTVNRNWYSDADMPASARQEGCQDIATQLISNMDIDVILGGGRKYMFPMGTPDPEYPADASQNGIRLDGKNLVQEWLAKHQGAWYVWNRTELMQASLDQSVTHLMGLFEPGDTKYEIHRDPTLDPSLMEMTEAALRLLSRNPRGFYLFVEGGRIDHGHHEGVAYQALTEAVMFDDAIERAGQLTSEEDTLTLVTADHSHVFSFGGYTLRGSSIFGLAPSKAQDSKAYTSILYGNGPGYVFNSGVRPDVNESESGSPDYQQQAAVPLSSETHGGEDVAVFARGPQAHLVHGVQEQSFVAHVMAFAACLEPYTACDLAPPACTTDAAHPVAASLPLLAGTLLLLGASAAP

IC50 [1]: 3.3 µM (active) | IC50 [2]: 7.37 µM (active)
Compound: CCc1ccc2nc(N3CCCCCC3)cc(C)c2c1

EC50 [3]: 1.81 µM (active)
Compound: Nc1cccc(NC(=O)C2CC3CCC2C3)n1 (centres undefined)

Compound: Cc1cc(C)c2nc(C)cc(N/N=C/c3ccc(O)cc3)c2c1
EC50 (BJ [4]): 2.56 µM (inconclusive) | EC50 (BJ [5]): 5.87 µM (active) | EC50 (BJ [6]): 2.78 µM (inconclusive) | EC50 [7]: 5.11 µM (inconclusive) | EC50 [8]: 5.96 µM (active) | IC50 [9]: 18.1 µM (active) | EC50 (BJ [10]): 0.555 µM (active) | CC50 [11]: 13.3 µM (active) | IC50 [12]: 18.2 µM (active) | AC50 [13]: 0.939 µM (active) | AC50 (Paired box protein Pax-8): 9.08 µM (active) | AC50 [14]: 50.5 µM (active)

IC50 (Large T antigen): 38.4 µM (active) | IC50 [15]: 2.84 µM (active) | IC50 [16]: 15.1 µM (active) | IC50 [17]: < 0.195 µM (active)
Compound: O=S(=O)(c1ccc(NC(=S)N/N=C/c2ccc(O)c(O)c2)cc1)N1CCOCC1
